ChEMBL document CHEMBL3885881, “DrugMatrix”

Species on record: Rattus norvegicus
Assay: DrugMatrix - Regimen: Daily Repeat
Type: toxicity, organism-based, Sprague-Dawley
Set-up: regimen Daily Repeat, gender Male, age 6-8 weeks
Conditions: in vivo, po, route oral GAVAGE, […]; for ABSOLUTE BASOPHIL / ABSOLUTE EOSINOPHIL / ABSOLUTE LYMPHOCYTE / ABSOLUTE MONOCYTE / ABSOLUTE SEGMENTED NEUTROPHIL / BASOPHIL / EOSINOPHIL / ERYTHROCYTE COUNT / HEMATOCRIT / HEMOGLOBIN / LEUKOCYTE COUNT / LYMPHOCYTE / MEAN CORPUSCULAR HEMOGLOBIN / MEAN CORPUSCULAR HEMOGLOBIN CONCENTRATION / MEAN CORPUSCULAR VOLUME / MONOCYTE / NEUTROPHIL / NUCLEATED RED BLOOD CELLS / PLATELET COUNT: tissue Blood; for ALANINE AMINOTRANSFERASE / ALBUMIN / ALKALINE PHOSPHATASE / ASPARTATE AMINOTRANSFERASE / BLOOD UREA NITROGEN / CARBON DIOXIDE / CHLORIDE / CHOLESTEROL / CREATINE PHOSPHOKINASE / CREATININE / GLUCOSE / LACTATE DEHYDROGENASE / LIPASE / PHOSPHORUS / POTASSIUM / SODIUM / TOTAL BILIRUBIN / TOTAL PROTEIN / URIC ACID: tissue Plasma
[1] = 0 mg/kg, 72 h, dose level Control, time 3 day
[2] = 0 mg/kg, 120 h, dose level Control, time 5 day
[3] = 43 mg/kg, 72 h, dose level Low, time 3 day
[4] = 43 mg/kg, 120 h, dose level Low, time 5 day

Clc1ccc(COC(Cn2ccnc2)c2ccc(Cl)cc2Cl)cc1 (configuration not stated) [ECONAZOLE]
ABSOLUTE BASOPHIL [1]: 0 CELLS/uL
ABSOLUTE EOSINOPHIL [1]: 0 CELLS/uL
ABSOLUTE LYMPHOCYTE [1]: 7601 CELLS/uL
ABSOLUTE MONOCYTE [1]: 354.33 CELLS/uL
ABSOLUTE SEGMENTED NEUTROPHIL [1]: 744.67 CELLS/uL
BASOPHIL [1]: 0%
EOSINOPHIL [1]: 0%
ERYTHROCYTE COUNT [1]: 5.03 x10E6/uL
HEMATOCRIT [1]: 33.7%
HEMOGLOBIN [1]: 13.43 G/DL
LEUKOCYTE COUNT [1]: 8.7 x10E3/uL
LYMPHOCYTE [1]: 86.33%
MEAN CORPUSCULAR HEMOGLOBIN [1]: 26.7 pg
MEAN CORPUSCULAR HEMOGLOBIN CONCENTRATION [1]: 39.83 G/DL
MEAN CORPUSCULAR VOLUME [1]: 67 fL
MONOCYTE [1]: 4.67%
NEUTROPHIL [1]: 9%
NUCLEATED RED BLOOD CELLS [1]: 0 /100WBC
PLATELET COUNT [1]: 1151 x10E3/uL
ALANINE AMINOTRANSFERASE [1]: 97.67 u/L
ALBUMIN [1]: 4.07 G/DL
ALKALINE PHOSPHATASE [1]: 607.67 u/L
ASPARTATE AMINOTRANSFERASE [1]: 101 u/L
BLOOD UREA NITROGEN [1]: 13.33 mg/dL
CARBON DIOXIDE [1]: 36 mmol/L
CHLORIDE [1]: 99.67 MEQ/L
CHOLESTEROL [1]: 75.67 mg/dL
CREATINE PHOSPHOKINASE [1]: 279.67 u/L
CREATININE [1]: 0.16 mg/dL
GLUCOSE [1]: 164 mg/dL
LACTATE DEHYDROGENASE [1]: 115 u/L
LIPASE [1]: 12.67 u/L
PHOSPHORUS [1]: 8.77 mg/dL
POTASSIUM [1]: 5.79 MEQ/L
SODIUM [1]: 142.83 MEQ/L
TOTAL BILIRUBIN [1]: 0.27 mg/dL
TOTAL PROTEIN [1]: 5.8 G/DL
URIC ACID [1]: 0.67 mg/dL
ABSOLUTE BASOPHIL [2]: 0 CELLS/uL
ABSOLUTE EOSINOPHIL [2]: 0 CELLS/uL
ABSOLUTE LYMPHOCYTE [2]: 4426.33 CELLS/uL
ABSOLUTE MONOCYTE [2]: 102.67 CELLS/uL
ABSOLUTE SEGMENTED NEUTROPHIL [2]: 337.67 CELLS/uL
BASOPHIL [2]: 0%
EOSINOPHIL [2]: 0%
ERYTHROCYTE COUNT [2]: 5.31 x10E6/uL
HEMATOCRIT [2]: 32.5%
HEMOGLOBIN [2]: 13.17 G/DL
LEUKOCYTE COUNT [2]: 4.87 x10E3/uL
LYMPHOCYTE [2]: 90.33%
MEAN CORPUSCULAR HEMOGLOBIN [2]: 24.93 pg
MEAN CORPUSCULAR HEMOGLOBIN CONCENTRATION [2]: 40.67 G/DL
MEAN CORPUSCULAR VOLUME [2]: 61.33 fL
MONOCYTE [2]: 2.33%
NEUTROPHIL [2]: 7.33%
NUCLEATED RED BLOOD CELLS [2]: 0.33 /100WBC
PLATELET COUNT [2]: 848.33 x10E3/uL
ALANINE AMINOTRANSFERASE [2]: 59.67 u/L
ALBUMIN [2]: 3.87 G/DL
ALKALINE PHOSPHATASE [2]: 452 u/L
ASPARTATE AMINOTRANSFERASE [2]: 81.33 u/L
BLOOD UREA NITROGEN [2]: 13.67 mg/dL
CARBON DIOXIDE [2]: 26.33 mmol/L
CHLORIDE [2]: 103.67 MEQ/L
CHOLESTEROL [2]: 65.67 mg/dL
CREATINE PHOSPHOKINASE [2]: 355.33 u/L
CREATININE [2]: 0.14 mg/dL
GLUCOSE [2]: 171.33 mg/dL
LACTATE DEHYDROGENASE [2]: 118 u/L
LIPASE [2]: 11.33 u/L
PHOSPHORUS [2]: 11.13 mg/dL
POTASSIUM [2]: 5.18 MEQ/L
SODIUM [2]: 143.17 MEQ/L
TOTAL BILIRUBIN [2]: 0.2 mg/dL
TOTAL PROTEIN [2]: 5.87 G/DL
URIC ACID [2]: 0.63 mg/dL
ABSOLUTE BASOPHIL [3]: 0 CELLS/uL
ABSOLUTE EOSINOPHIL [3]: 68.67 CELLS/uL
ABSOLUTE LYMPHOCYTE [3]: 8555.33 CELLS/uL
ABSOLUTE MONOCYTE [3]: 189.33 CELLS/uL
ABSOLUTE SEGMENTED NEUTROPHIL [3]: 653.33 CELLS/uL
BASOPHIL [3]: 0%
EOSINOPHIL [3]: 0.67%
ERYTHROCYTE COUNT [3]: 4.93 x10E6/uL
HEMATOCRIT [3]: 32.1%
HEMOGLOBIN [3]: 12.8 G/DL
LEUKOCYTE COUNT [3]: 9.47 x10E3/uL
LYMPHOCYTE [3]: 90.67%
MEAN CORPUSCULAR HEMOGLOBIN [3]: 25.97 pg
MEAN CORPUSCULAR HEMOGLOBIN CONCENTRATION [3]: 39.9 G/DL
MEAN CORPUSCULAR VOLUME [3]: 65.1 fL
MONOCYTE [3]: 2%
NEUTROPHIL [3]: 6.67%
NUCLEATED RED BLOOD CELLS [3]: 0 /100WBC
PLATELET COUNT [3]: 1050.67 x10E3/uL
ALANINE AMINOTRANSFERASE [3]: 100.33 u/L
ALBUMIN [3]: 3.8 G/DL
ALKALINE PHOSPHATASE [3]: 429 u/L
ASPARTATE AMINOTRANSFERASE [3]: 104.67 u/L
BLOOD UREA NITROGEN [3]: 11.33 mg/dL
CARBON DIOXIDE [3]: 37.67 mmol/L
CHLORIDE [3]: 107 MEQ/L
CHOLESTEROL [3]: 72.33 mg/dL
CREATINE PHOSPHOKINASE [3]: 331 u/L
CREATININE [3]: 0.19 mg/dL
GLUCOSE [3]: 156.67 mg/dL
LACTATE DEHYDROGENASE [3]: 94 u/L
LIPASE [3]: 10.33 u/L
PHOSPHORUS [3]: 9.27 mg/dL
POTASSIUM [3]: 5.1 MEQ/L
SODIUM [3]: 138.9 MEQ/L
TOTAL BILIRUBIN [3]: 0.13 mg/dL
TOTAL PROTEIN [3]: 5.6 G/DL
URIC ACID [3]: 0.57 mg/dL
ABSOLUTE BASOPHIL [4]: 0 CELLS/uL
ABSOLUTE EOSINOPHIL [4]: 31.33 CELLS/uL
ABSOLUTE LYMPHOCYTE [4]: 7327.67 CELLS/uL
ABSOLUTE MONOCYTE [4]: 294.67 CELLS/uL
ABSOLUTE SEGMENTED NEUTROPHIL [4]: 379.67 CELLS/uL
BASOPHIL [4]: 0%
EOSINOPHIL [4]: 0.33%
ERYTHROCYTE COUNT [4]: 5.33 x10E6/uL
HEMATOCRIT [4]: 33.3%
HEMOGLOBIN [4]: 13 G/DL
LEUKOCYTE COUNT [4]: 8.03 x10E3/uL
LYMPHOCYTE [4]: 91%
MEAN CORPUSCULAR HEMOGLOBIN [4]: 24.4 pg
MEAN CORPUSCULAR HEMOGLOBIN CONCENTRATION [4]: 39.07 G/DL
MEAN CORPUSCULAR VOLUME [4]: 62.47 fL
MONOCYTE [4]: 3.67%
NEUTROPHIL [4]: 5%
NUCLEATED RED BLOOD CELLS [4]: 0 /100WBC
PLATELET COUNT [4]: 1117.67 x10E3/uL
ALANINE AMINOTRANSFERASE [4]: 59 u/L
ALBUMIN [4]: 3.97 G/DL
ALKALINE PHOSPHATASE [4]: 377.67 u/L
ASPARTATE AMINOTRANSFERASE [4]: 79 u/L
BLOOD UREA NITROGEN [4]: 12.33 mg/dL
CARBON DIOXIDE [4]: 28.67 mmol/L
CHLORIDE [4]: 104.33 MEQ/L
CHOLESTEROL [4]: 71.33 mg/dL
CREATINE PHOSPHOKINASE [4]: 198.33 u/L
CREATININE [4]: 0.22 mg/dL
GLUCOSE [4]: 162 mg/dL
LACTATE DEHYDROGENASE [4]: 63 u/L
LIPASE [4]: 12.33 u/L
PHOSPHORUS [4]: 10.33 mg/dL
POTASSIUM [4]: 5.68 MEQ/L
SODIUM [4]: 144.73 MEQ/L
TOTAL BILIRUBIN [4]: 0.17 mg/dL
TOTAL PROTEIN [4]: 5.93 G/DL
URIC ACID [4]: 0.5 mg/dL
